Experimental data taken from PubChem BioAssay AID330 (DTP/NCI, 2004).
Values joined by “and” are separate entries in the source; they are usually repeats but may differ in a detail not shown here. Equal values may be shown once. Toxic doses and inconclusive results are not listed.

Test system: P388 leukemia ip, CD2F1 mice, survival T/C
Test: NCI In Vivo Anticancer Drug Screen. Data for tumor model P388 Leukemia (intraperitoneal) in CD2F1 (CDF1) mice
Conditions: endpoint: median survival time, higher = longer survival
How it was run: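 Mice carrying the transplanted tumor received test compound or vehicle. Survival was recorded in each group, and the value is the treated-group measurement divided by that of the vehicle-treated control group.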

[1] = dose: 100.0 mg/kg/injection, schedule: Q01DX009 (ip), vehicle: saline with Tween-80
[2] = dose: 200.0 mg/kg/injection, schedule: Q01DX009 (ip), vehicle: saline with Tween-80
[3] = dose: 50.0 mg/kg/injection, schedule: Q01DX005 (ip), vehicle: saline with Tween-80
[4] = dose: 100.0 mg/kg/injection, schedule: Q01DX005 (ip), vehicle: saline with Tween-80
[5] = dose: 200.0 mg/kg/injection, schedule: Q01DX005 (ip), vehicle: saline with Tween-80
[6] = dose: 50.0 mg/kg/injection, schedule: Q01DX009 (ip), vehicle: saline
[7] = dose: 100.0 mg/kg/injection, schedule: Q01DX009 (ip), vehicle: saline
[8] = dose: 200.0 mg/kg/injection, schedule: Q01DX009 (ip), vehicle: saline
[9] = dose: 60.0 mg/kg/injection, schedule: Q01DX005 (ip), vehicle: saline with Tween-80
[10] = dose: 120.0 mg/kg/injection, schedule: Q01DX005 (ip), vehicle: saline with Tween-80
[11] = dose: 240.0 mg/kg/injection, schedule: Q01DX005 (ip), vehicle: saline with Tween-80

SMILES: Brc1ccc(-c2csc(Nc3nc(-c4ccc(Br)cc4)cs3)n2)cc1
- T/C [1]: 95 % of control
- T/C [2]: 100 % of control
- T/C (dose: 400.0 mg/kg/injection, schedule: Q01DX009 (ip), vehicle: saline with Tween-80): 104 % of control

SMILES: NC1CCC(O)CC1C(=O)O (configuration not stated)
- T/C [3]: 99 % of control
- T/C [4]: 103 % of control
- T/C [5]: 86 % of control

SMILES: CCCCCCC(/C=C/c1ccc(Cl)c(Cl)c1)=N\NC(=O)C[N+](C)(C)C
- T/C (dose: 12.5 mg/kg/injection, schedule: Q01DX009 (ip), vehicle: saline with Tween-80): 100 % of control
- T/C (dose: 25.0 mg/kg/injection, schedule: Q01DX009 (ip), vehicle: saline with Tween-80): 103 % of control
- T/C [6]: 98 % of control

SMILES: CC1=NN(c2cccc(S(=O)(=O)O)c2)C(=O)C1N=Nc1cc(Cl)cc(S(=O)(=O)O)c1O.CC1=NN(c2cccc(S(=O)(=O)O)c2)C(=O)C1N=Nc1cc(Cl)cc(S(=O)(=O)O)c1O.[Cr] (configuration not stated)
- T/C [6]: 111 % of control and 119 % of control
- T/C [7]: 120 % of control and 122 % of control
- T/C [8]: 123 % of control
- T/C (dose: 400.0 mg/kg/injection, schedule: Q01DX009 (ip), vehicle: saline): 122 % of control

SMILES: C/C(=N\NC(=S)Nc1cccc(F)c1)c1ccccn1
- T/C [3]: 109 % of control
- T/C [4]: 112 % of control
- T/C [5]: 119 % of control

SMILES: COc1cc(OC)c(OC)cc1/C=C1/N=C(c2ccccc2)OC1=O
- T/C (dose: 50.0 mg/kg/injection, schedule: Q01DX009 (ip), vehicle: saline with Tween-80): 99 % of control
- T/C [1]: 92 % of control
- T/C [2]: 93 % of control

SMILES: CCN(CC)CCN1C(=O)NC2(CCCCC2)C1=O
- T/C [9]: 101 % of control
- T/C [10]: 100 % of control
- T/C [11]: 99 % of control

SMILES: Cc1cc(=O)oc2cc3occc(=O)c3cc12
- T/C [9]: 98 % of control
- T/C [10]: 95 % of control
- T/C [11]: 92 % of control

SMILES: CC(=O)C1=C(c2ccc([N+](=O)[O-])cc2)NC(=O)NC1c1ccco1 (configuration not stated)
- T/C (dose: 100.0 mg/kg/injection, schedule: Q04DX003 (ip), vehicle: saline with Tween-80): 95 % of control
- T/C (dose: 200.0 mg/kg/injection, schedule: Q04DX003 (ip), vehicle: saline with Tween-80): 100 % of control
- T/C (dose: 400.0 mg/kg/injection, schedule: Q04DX003 (ip), vehicle: saline with Tween-80): 100 % of control

SMILES: C1CN(CCSSCCN2CCOCC2)CCO1
- T/C [6]: 104 % of control
- T/C [7]: 113 % of control
- T/C [8]: 109 % of control

SMILES: O=C1NNC(=O)C2(CCC(O)C2)c2ccncc21 (configuration not stated)
- T/C (dose: 3.75 mg/kg/injection, schedule: Q01DX005 (ip), vehicle: saline): 105 % of control
- T/C (dose: 7.5 mg/kg/injection, schedule: Q01DX005 (ip), vehicle: saline): 92 % of control
- T/C (dose: 15.0 mg/kg/injection, schedule: Q01DX005 (ip), vehicle: saline): 96 % of control
- T/C (dose: 30.0 mg/kg/injection, schedule: Q01DX005 (ip), vehicle: saline): 105 % of control

SMILES: C[Si](C)(Cn1ccc(=O)n(C[Si](C)(C)c2ccccc2)c1=O)c1ccccc1
- T/C (dose: 81.0 mg/kg/injection, schedule: Q04DX002 (ip), vehicle: saline with Tween-80): 100 % of control
- T/C (dose: 162.0 mg/kg/injection, schedule: Q04DX002 (ip), vehicle: saline with Tween-80): 104 % of control
- T/C (dose: 324.0 mg/kg/injection, schedule: Q04DX002 (ip), vehicle: saline with Tween-80): 106 % of control

SMILES: CCN(CC)CCCC(C)Nc1c(C)cnc2cc(Cl)c(C)cc12 (configuration not stated)
- T/C (dose: 50.0 mg/kg/injection, schedule: Q01DX005 (ip), vehicle: saline): 103 % of control
- T/C (dose: 100.0 mg/kg/injection, schedule: Q01DX005 (ip), vehicle: saline): 100 % of control

SMILES: CC/C(=C1/C=C(O)C(=O)C=C1OC)c1ccc(OC)cc1
- T/C (dose: 2.5 mg/kg/injection, schedule: Q01DX009 (ip), vehicle: saline + alcohol): 100 % of control
- T/C (dose: 5.0 mg/kg/injection, schedule: Q01DX009 (ip), vehicle: saline + alcohol): 101 % of control
- T/C (dose: 10.0 mg/kg/injection, schedule: Q01DX009 (ip), vehicle: saline + alcohol): 103 % of control

SMILES: CNC1CC(C)(O)Cc2cc3c(c(O)c21)C(=O)c1c(O)cc2c(c1C3=O)OC1OC2(C)C(O)C(N(C)C)C1O (configuration not stated)
- T/C (dose: 12.5 mg/kg/injection, schedule: Q01DX009 (ip), vehicle: other): 153 % of control
- T/C (dose: 25.0 mg/kg/injection, schedule: Q01DX009 (ip), vehicle: other): 158 % of control

SMILES: O=C(O)CCC(=O)N(CCP(c1ccccc1)c1ccccc1)CCP(c1ccccc1)c1ccccc1
- T/C (dose: 50.0 mg/kg/injection, schedule: Q01DX009 (ip), vehicle: Klucel (hydroxypropylcellulose) (HPC)): 111 % of control
- T/C (dose: 100.0 mg/kg/injection, schedule: Q01DX009 (ip), vehicle: Klucel (hydroxypropylcellulose) (HPC)): 112 % of control
